# Experimental data published in publication PMC5513037, “Examining the influence of specificity ligands and ATP-competitive ligands on the overall effectiveness of bivalent kinase inhibitors” (Proteome Science, 2017).
# Key:
# Test in all cases: KAM-matrix competition in K562 lysate;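 as to 0.001 uM KAM: median log10 fold change of treatment over DMSO control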;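 as to 0.01 uM KAM: median log10 fold change of treatment over DMSO control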;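 as to 0.1 uM KAM: median log10 fold change of treatment over DMSO control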;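 as to 1 uM KAM: median log10 fold change of treatment over DMSO control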;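 as to 10 uM KAM: median log10 fold change of treatment over DMSO control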
# Type in all cases: binding
# [1] = molecular target: T1, MAPK1 (Homo sapiens, UniProt P28482)
# T1 construct: endogenous in cells; host or cells: K562
# T1 sequence (P28482 whole entry): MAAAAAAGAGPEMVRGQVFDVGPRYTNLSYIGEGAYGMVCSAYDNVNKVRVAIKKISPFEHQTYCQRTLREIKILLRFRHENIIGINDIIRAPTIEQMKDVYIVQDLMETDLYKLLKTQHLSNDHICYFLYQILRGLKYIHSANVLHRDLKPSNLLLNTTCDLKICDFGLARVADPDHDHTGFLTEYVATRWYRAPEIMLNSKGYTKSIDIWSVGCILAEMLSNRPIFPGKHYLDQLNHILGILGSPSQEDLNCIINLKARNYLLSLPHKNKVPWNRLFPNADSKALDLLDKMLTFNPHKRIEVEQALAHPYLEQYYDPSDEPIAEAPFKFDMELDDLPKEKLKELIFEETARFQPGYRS
# Experimental: (§1) Supplement 12953_2017_125_MOESM1_ESM.zip/MS_Supp Info.xlsx, sheet "KAM" | column: 10 uM KAM; 1 uM KAM; 0.1 uM KAM; 0.01 uM KAM; 0.001 uM KAM; RB50
# [2] = molecular target: T2, PRKACG (Homo sapiens, UniProt P22612);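 as to 0.001 uM KAM: median log10 fold change of treatment over DMSO control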;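 as to 0.01 uM KAM: median log10 fold change of treatment over DMSO control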;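 as to 0.1 uM KAM: median log10 fold change of treatment over DMSO control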;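 as to 1 uM KAM: median log10 fold change of treatment over DMSO control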;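 as to 10 uM KAM: median log10 fold change of treatment over DMSO control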
# T2 construct: endogenous in cells; host or cells: K562
# T2 sequence (P22612 whole entry): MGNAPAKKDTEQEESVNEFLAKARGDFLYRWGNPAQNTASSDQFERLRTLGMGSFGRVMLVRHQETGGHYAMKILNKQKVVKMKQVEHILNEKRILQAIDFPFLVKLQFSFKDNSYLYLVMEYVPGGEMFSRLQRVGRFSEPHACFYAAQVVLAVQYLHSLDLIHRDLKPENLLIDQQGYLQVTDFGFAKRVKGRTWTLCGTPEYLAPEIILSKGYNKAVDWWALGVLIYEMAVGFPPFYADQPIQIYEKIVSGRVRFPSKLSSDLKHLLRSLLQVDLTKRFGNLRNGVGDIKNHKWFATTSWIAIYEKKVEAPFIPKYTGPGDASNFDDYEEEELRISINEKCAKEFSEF
# Experimental: as §1
# [3] = molecular target: T3, TGFBR1 (Homo sapiens, UniProt P36897)
# T3 construct: endogenous in cells; host or cells: K562
# T3 sequence (P36897 34-503): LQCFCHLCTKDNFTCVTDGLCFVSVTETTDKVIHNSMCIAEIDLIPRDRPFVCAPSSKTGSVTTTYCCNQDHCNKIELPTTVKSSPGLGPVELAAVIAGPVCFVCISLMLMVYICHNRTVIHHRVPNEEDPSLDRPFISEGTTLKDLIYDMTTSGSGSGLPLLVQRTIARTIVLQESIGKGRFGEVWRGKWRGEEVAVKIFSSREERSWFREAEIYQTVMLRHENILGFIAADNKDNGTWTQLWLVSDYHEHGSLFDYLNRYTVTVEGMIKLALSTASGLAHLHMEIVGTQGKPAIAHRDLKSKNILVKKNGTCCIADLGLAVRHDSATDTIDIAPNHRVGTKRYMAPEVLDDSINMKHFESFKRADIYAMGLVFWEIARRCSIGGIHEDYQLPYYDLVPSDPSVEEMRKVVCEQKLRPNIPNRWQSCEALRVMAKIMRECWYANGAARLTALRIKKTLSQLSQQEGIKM
# Experimental: as §1
# [4] = molecular target: T4, CDK16 (Homo sapiens, UniProt Q00536)
# T4 construct: endogenous in cells; host or cells: K562
# T4 sequence (Q00536 whole entry): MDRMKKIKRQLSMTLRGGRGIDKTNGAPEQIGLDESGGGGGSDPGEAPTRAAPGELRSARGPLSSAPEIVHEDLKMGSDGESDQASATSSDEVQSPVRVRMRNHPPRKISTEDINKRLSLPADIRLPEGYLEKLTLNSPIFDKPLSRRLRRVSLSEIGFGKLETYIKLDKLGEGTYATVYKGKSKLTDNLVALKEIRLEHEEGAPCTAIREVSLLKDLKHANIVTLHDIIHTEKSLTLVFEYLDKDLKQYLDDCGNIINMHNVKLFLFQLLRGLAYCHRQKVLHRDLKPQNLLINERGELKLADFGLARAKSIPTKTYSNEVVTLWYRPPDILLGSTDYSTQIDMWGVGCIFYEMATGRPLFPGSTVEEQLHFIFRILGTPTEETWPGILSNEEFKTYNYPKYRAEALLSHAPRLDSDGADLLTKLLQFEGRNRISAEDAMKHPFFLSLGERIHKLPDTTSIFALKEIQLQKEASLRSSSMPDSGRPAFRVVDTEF
# Experimental: as §1
# [5] = molecular target: T5, ULK2 (Homo sapiens, UniProt Q8IYT8);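 as to 0.001 uM KAM: median log10 fold change of treatment over DMSO control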;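 as to 0.01 uM KAM: median log10 fold change of treatment over DMSO control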;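 as to 0.1 uM KAM: median log10 fold change of treatment over DMSO control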;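 as to 1 uM KAM: median log10 fold change of treatment over DMSO control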;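 as to 10 uM KAM: median log10 fold change of treatment over DMSO control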
# T5 construct: endogenous in cells; host or cells: K562
# T5 sequence (Q8IYT8 1-1036): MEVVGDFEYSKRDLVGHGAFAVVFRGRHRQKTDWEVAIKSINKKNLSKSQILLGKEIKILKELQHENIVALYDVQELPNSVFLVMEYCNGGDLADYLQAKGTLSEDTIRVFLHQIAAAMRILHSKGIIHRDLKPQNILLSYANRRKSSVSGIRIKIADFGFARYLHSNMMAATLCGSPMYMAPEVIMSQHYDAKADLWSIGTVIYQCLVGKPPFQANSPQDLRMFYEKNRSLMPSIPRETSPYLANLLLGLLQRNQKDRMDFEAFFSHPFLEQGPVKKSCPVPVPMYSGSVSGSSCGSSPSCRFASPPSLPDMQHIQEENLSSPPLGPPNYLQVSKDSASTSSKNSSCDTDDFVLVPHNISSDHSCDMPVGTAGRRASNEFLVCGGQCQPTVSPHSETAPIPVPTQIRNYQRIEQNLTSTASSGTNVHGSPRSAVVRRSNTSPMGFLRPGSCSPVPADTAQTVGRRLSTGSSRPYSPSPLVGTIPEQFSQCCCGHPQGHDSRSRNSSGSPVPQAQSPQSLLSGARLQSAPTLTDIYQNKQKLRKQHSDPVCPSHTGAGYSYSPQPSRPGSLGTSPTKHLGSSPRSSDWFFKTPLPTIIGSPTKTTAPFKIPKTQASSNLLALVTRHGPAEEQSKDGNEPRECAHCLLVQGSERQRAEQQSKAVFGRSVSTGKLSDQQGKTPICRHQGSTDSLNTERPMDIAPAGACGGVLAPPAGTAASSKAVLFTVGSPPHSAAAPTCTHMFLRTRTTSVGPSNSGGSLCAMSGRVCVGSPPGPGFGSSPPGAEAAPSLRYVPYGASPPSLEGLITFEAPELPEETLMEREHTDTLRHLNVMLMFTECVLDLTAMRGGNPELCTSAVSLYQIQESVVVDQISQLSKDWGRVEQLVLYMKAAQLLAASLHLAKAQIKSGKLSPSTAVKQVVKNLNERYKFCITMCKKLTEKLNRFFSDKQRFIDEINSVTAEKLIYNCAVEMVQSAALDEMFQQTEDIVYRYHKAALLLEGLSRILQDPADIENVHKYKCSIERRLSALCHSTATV
# Experimental: as §1
# [6] = molecular target: T6, CDK5 (Homo sapiens, UniProt Q00535)
# T6 construct: endogenous in cells; host or cells: K562
# T6 sequence (Q00535 whole entry): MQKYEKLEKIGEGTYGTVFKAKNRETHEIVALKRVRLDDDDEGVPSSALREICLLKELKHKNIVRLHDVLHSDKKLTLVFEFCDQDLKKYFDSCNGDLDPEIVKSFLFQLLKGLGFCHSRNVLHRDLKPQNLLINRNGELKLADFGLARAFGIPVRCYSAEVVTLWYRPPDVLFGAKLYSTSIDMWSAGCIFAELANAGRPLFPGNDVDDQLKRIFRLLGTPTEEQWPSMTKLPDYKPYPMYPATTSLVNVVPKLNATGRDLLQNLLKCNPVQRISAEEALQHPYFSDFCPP
# Experimental: as §1
# [7] = molecular target: T7, CHEK1 (Homo sapiens, UniProt O14757)
# T7 construct: endogenous in cells; host or cells: K562
# T7 sequence (O14757 1-476): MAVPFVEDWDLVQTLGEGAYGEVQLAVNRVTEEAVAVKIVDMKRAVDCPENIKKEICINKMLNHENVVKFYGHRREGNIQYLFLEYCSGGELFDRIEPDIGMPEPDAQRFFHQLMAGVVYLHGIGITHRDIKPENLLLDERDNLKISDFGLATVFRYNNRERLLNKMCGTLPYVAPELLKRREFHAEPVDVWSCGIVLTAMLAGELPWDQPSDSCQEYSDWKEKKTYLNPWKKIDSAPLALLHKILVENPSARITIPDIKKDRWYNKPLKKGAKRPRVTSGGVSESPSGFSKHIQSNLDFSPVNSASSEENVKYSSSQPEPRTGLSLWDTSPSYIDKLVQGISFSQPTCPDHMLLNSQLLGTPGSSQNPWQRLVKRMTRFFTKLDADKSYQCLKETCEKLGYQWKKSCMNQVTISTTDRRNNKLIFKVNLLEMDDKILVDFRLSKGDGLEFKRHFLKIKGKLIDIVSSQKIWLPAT
# Experimental: as §1
# [8] = read-out: RB50 (the source's name)
# [9] = KAM 0.001-10 uM, read-out: RB50 (the source's name)
structure (smiles),measurement,setting,value
N#CCc1ccc(Nc2nc(NCCCN)cc(Nc3cc(C4CC4)[nH]n3)n2)cc1 [KAM],median Log10 fold change,[1]; 0.001 uM KAM,-0.0422
same,median Log10 fold change,[1]; 0.01 uM KAM,-0.03333
same,median Log10 fold change,[1]; 0.1 uM KAM,-0.1132
same,median Log10 fold change,[1]; 1 uM KAM,-0.2315
same,median Log10 fold change,[1]; 10 uM KAM,-0.3482
same,IC50,[1]; [8],3.18 µM
same,IC50,[2]; [9],> 10 µM
same,0.001 uM KAM,[2]; relative to 0 uM KAM = 0,-0.03855
same,0.01 uM KAM,[2]; relative to 0 uM KAM = 0,0.1471
same,0.1 uM KAM,[2]; relative to 0 uM KAM = 0,0.178
same,1 uM KAM,[2]; relative to 0 uM KAM = 0,0.2462
same,10 uM KAM,[2]; relative to 0 uM KAM = 0,0.202
same,median Log10 fold change,[3]; 0.001 uM KAM,0.003086
same,median Log10 fold change,[3]; 0.01 uM KAM,-0.03819
same,median Log10 fold change,[3]; 0.1 uM KAM,-0.2662
same,median Log10 fold change,[3]; 1 uM KAM,-0.4673
same,median Log10 fold change,[3]; 10 uM KAM,-0.5096
same,IC50,[3]; [8],0.202 µM
same,median Log10 fold change,[4]; 0.001 uM KAM,0.002002
same,median Log10 fold change,[4]; 0.01 uM KAM,0.005918
same,median Log10 fold change,[4]; 0.1 uM KAM,-0.06683
same,median Log10 fold change,[4]; 1 uM KAM,-0.3041
same,median Log10 fold change,[4]; 10 uM KAM,-0.3301
same,IC50,[4]; [8],1.97 µM
same,IC50,[5]; [9],> 10 µM
same,0.001 uM KAM,[5]; relative to 0 uM KAM = 0,-0.004094
same,0.01 uM KAM,[5]; relative to 0 uM KAM = 0,-0.0009308
same,0.1 uM KAM,[5]; relative to 0 uM KAM = 0,0.03838
same,1 uM KAM,[5]; relative to 0 uM KAM = 0,0.1564
same,10 uM KAM,[5]; relative to 0 uM KAM = 0,0.04645
same,median Log10 fold change,[6]; 0.001 uM KAM,0.003574
same,median Log10 fold change,[6]; 0.01 uM KAM,0.001841
same,median Log10 fold change,[6]; 0.1 uM KAM,-0.2018
same,median Log10 fold change,[6]; 1 uM KAM,-0.5013
same,median Log10 fold change,[6]; 10 uM KAM,-0.5902
same,IC50,[6]; [8],0.298 µM
same,median Log10 fold change,[7]; 0.001 uM KAM,-0.01146
same,median Log10 fold change,[7]; 0.01 uM KAM,-0.009061
same,median Log10 fold change,[7]; 0.1 uM KAM,-0.1025
same,median Log10 fold change,[7]; 1 uM KAM,-0.2953
same,median Log10 fold change,[7]; 10 uM KAM,-0.4632
same,IC50,[7]; [8],1.29 µM
